# Publication PMC2686265, “ATP and MO25α Regulate the Conformational State of the STRADα Pseudokinase and Activation of the LKB1 Tumour Suppressor” (PLoS Biology, 2009)
# Read-outs that look alike come from different tables or passages of the source.
# Target: T1, STRADα (Homo sapiens, UniProt Q7RTN6)
# T1 construct: wild-type and mutant forms of STRADα (residues 54–431) and MO25α (residues 1–341) were expressed individually as GST fusion proteins in E. coli; GST (cleaved yes); made in house; host or cells: E. coli
# T1 sequence (Q7RTN6 54-431): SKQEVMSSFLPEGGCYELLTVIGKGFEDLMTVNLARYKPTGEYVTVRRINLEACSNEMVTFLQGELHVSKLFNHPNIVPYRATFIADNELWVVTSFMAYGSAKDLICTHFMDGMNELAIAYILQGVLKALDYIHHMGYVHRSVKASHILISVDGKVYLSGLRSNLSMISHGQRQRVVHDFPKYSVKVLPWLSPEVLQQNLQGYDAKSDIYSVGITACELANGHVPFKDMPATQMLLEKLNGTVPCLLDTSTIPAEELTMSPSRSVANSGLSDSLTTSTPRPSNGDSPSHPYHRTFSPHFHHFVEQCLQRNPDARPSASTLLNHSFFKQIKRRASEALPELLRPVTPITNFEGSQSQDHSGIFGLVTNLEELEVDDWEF
# Experiment: Displacement of TNP-ATP by ATP and ADP (fluorescence)
# Type: binding
# Details: STRADα alone, No Mg2+, displacement of 5 µM TNP-ATP
# Procedure: Fluorescent measurements of TNP-ATP (Molecular Probes), were obtained at 25°C in assay buffer (with the addition of 0.5–1.0 mM MgCl2 where indicated) using 1-cm pathlength cuvettes in a VARIAN Cary Eclipse Fluorescence spectrophotometer (Varian). Fluorescence was recorded using a 410-nm/540-nm excitation/emission wavelengths from 500 to 600 nm. In all cases, signal from the TNP-ATP buffer control was subtracted as background. For all binding studies, STRADα and STRADα mutants were assayed at 2 µM. In cases where STRADα/MO25α complexes were assayed, wild-type or mutant MO25α (2 µM) were preincubated for at least 2 h at 4°C prior to a fluorescence binding experiment. For saturation binding experiments, concentrated stocks of TNP-ATP were added stepwise, covering a range of concentrations from 0.05 to 30 µM. For displacement experiments, the concentration of TNP-ATP was fixed at 5 µM, and ATP or ADP was titrated in, covering a range of concentrations from 0.05 to 500 µM.
# All data were analysed using GraphPad-PRISM software (http://www.graphpad.com). […] In the displacement studies, equilibrium constant values for ATP and ADP were calculated by first determining the logEC50 value, using a standard dose-response equation: F x/F max = minimum+(maximum−minimum)/(1+10^([N]−logEC 50 ^)), where [N] equals the concentration of added nucleotide, and F x/F max represents the fractional occupancy. […]
Kd (read-out: Kd ADP) [nM],Kd (read-out: Kd ATP) [nM],Structure (SMILES)
2000 to 3000,–,Nc1ncnc2c1ncn2[C@@H]1O[C@H](COP(=O)(O)OP(=O)(O)O)[C@@H](O)[C@H]1O [ADP]
–,2000 to 3000,Nc1ncnc2c1ncn2[C@@H]1O[C@H](COP(=O)(O)OP(=O)(O)OP(=O)(O)O)[C@@H](O)[C@H]1O [ATP]
